Our source for the EC50 and CC50 values is ChEMBL document CHEMBL1156829 (Proc Natl Acad Sci U S A, 2008).

For data set [1], the system named is Plasmodium falciparum. Briefly: NOVARTIS: Inhibition of Plasmodium falciparum W2 (drug-resistant) proliferation in erythrocyte-based infection assay. As to conditions: Plasmodium falciparum, W2; read-out: EC50. The data set is classed as functional, organism-based.
For data set [2], the system named is Plasmodium falciparum. Briefly: NOVARTIS: Inhibition of Plasmodium falciparum 3D7 (drug-susceptible) proliferation in erythrocyte-based infection assay. It counts as functional, organism-based. The settings on record: Plasmodium falciparum, 3D7.
Data set [3] in a line: NOVARTIS: Cytotoxicity against human hepatocellular carcinoma cell line (Huh7). It counts as toxicity, cell-based, Huh-7. As to conditions: Huh7 cells (hepatocellular carcinoma cell line).

In general, EC50 refers to the concentration needed to bring the measured effect to its halfway point. Broadly, the CC50 is the concentration at which the toxic effect on the cells reaches its halfway point. Lower therefore signals harm at low concentration. For the compound `CCN1CCCC1CNc1[nH]cnc2c3cc(F)ccc3nc1-2` (configuration not stated), the EC50 in the data set with Plasmodium falciparum [1] worked out at 1260 nM; in the data set with Plasmodium falciparum [2] it was 808 nM. For the same compound, the CC50 in data set [3] is 22400 nM.
In the same order, the values of `OC(CN1CCN(CC(O)Cn2c3ccccc3c3cc(Br)ccc32)CC1)Cn1c2ccccc2c2ccccc21` (configuration not stated) are 576 nM, more than 1260 nM and more than 10000 nM.
As for `Cc1ccc(C2(C)CC(C)(C)N(C(=O)Cc3ccccc3)c3ccc(C(c4ccccc4)(c4ccccc4)c4ccccc4)cc32)cc1` (configuration not stated), the results for the EC50 in the data set on Plasmodium falciparum [1] and in the data set with Plasmodium falciparum [2] were 5680 nM and 4790 nM, respectively. In addition, the CC50 in data set [3] was more than 100000 nM.
Turning to `CCCCc1ccc(C(=O)N(CCc2ccccc2)C(CC)c2nc3ccccc3c(=O)n2-c2ccccc2OC)cc1` (configuration not stated), the concentration for a half-maximal effect (EC50) in the data set on Plasmodium falciparum [1] is 354 nM; in the data set on Plasmodium falciparum [2], 311 nM. The CC50 in data set [3] is more than 6270 nM.
For the compound `CCCCCc1ccc(C(=O)N(CCCC(C)Nc2cc(OC)cc3cccnc23)Cc2ccc(OC)c(OC)c2)cc1` (configuration not stated), the EC50 is 284 nM with Plasmodium falciparum [1] and 514 nM in the data set with Plasmodium falciparum [2]. The compound further registered a CC50 in data set [3] of 5030 nM.
`Oc1ccc(Nc2nc(NCc3ccco3)c3ccccc3n2)cc1`: the half-maximal effective concentration (EC50) with Plasmodium falciparum [1] worked out at 1110 nM; in the data set with Plasmodium falciparum [2] it was 86.1 nM. The same compound gave a CC50 in data set [3] of 19700 nM.
`CCN1/C(=C/C=C/c2oc3ccc4ccccc4c3[n+]2CC)Oc2ccc3ccccc3c21`: the figures for the EC50 with Plasmodium falciparum [1] and in the data set on Plasmodium falciparum [2] were 578 nM and more than 1250 nM, respectively. The same compound returned a CC50 in data set [3] of more than 10000 nM.
With `C=C[C@H]1CN2CC[C@H]1C[C@H]2[C@H](OC(=O)c1ccc(Cl)cc1)c1ccnc2ccccc12`, the EC50 in the data set on Plasmodium falciparum [1] was determined as 564 nM; in the data set on Plasmodium falciparum [2], 412 nM. For the same compound, in data set [3], the CC50 was more than 10000 nM.
Consider `CCC(=O)N1CCc2cc(Br)cc(S(=O)(=O)N3CCCCC3CC)c21` (configuration not stated), for which the EC50 came to 5700 nM in the data set on Plasmodium falciparum [1] and 9980 nM in the data set on Plasmodium falciparum [2]. The compound also yielded a CC50 in data set [3] of more than 100000 nM.
Consider `CCC1=NN2C(=N)/C(=C/c3cn(CCOc4cccc(C)c4)c4ccccc34)C(=O)N=C2S1`, for which the concentration giving a half-maximal response (EC50) with Plasmodium falciparum [1] is more than 572 nM; in the data set on Plasmodium falciparum [2], more than 1250 nM. Besides, the CC50 in data set [3] is more than 10000 nM.
The corresponding values for `Cc1cc2c(cc1S(=O)(=O)N(C)C1CCCCC1)OCC(=O)N2` are more than 569 nM, more than 1250 nM and more than 10000 nM.
`OCCN(CCO)CC(O)Cn1c2ccc(Br)cc2c2cc(Br)ccc21` (configuration not stated): the 50% effective concentration (EC50) in the data set on Plasmodium falciparum [1] stood at 1550 nM; with Plasmodium falciparum [2], 2330 nM. This compound also came in with a CC50 in data set [3] of 27300 nM.
As to `Cc1ccc(O)c(NC(=O)c2cnn3c(C(F)(F)F)cc(-c4ccc(F)cc4)nc23)c1`, the EC50 in the data set with Plasmodium falciparum [1] came out at 5720 nM; with Plasmodium falciparum [2], 10500 nM. For the same compound, the CC50 in data set [3] is more than 100000 nM.
In the same order, the values of `C=CC1CN2CCC1CC2[C@H](O)c1ccnc2ccc(O)cc12` (some centres not stated) are 5720 nM, 404 nM and more than 100000 nM.
In the same order, the values of `Nc1nc(NCC2CCC(CNS(=O)(=O)c3cccc4ccccc34)CC2)nc2ccccc12` (configuration not stated) are 571 nM, 684 nM and more than 10000 nM.
In the case of `CCCCn1c(=N)c(C(=O)NC(C)c2ccccc2)cc2c(=O)n3cccc(C)c3nc21` (configuration not stated), the 50% effective concentration (EC50) in the data set on Plasmodium falciparum [1] is more than 5680 nM; with Plasmodium falciparum [2], 1380 nM. Moreover, the 50% cytotoxic concentration (CC50) in data set [3] was more than 100000 nM.
Consider `O=C(Cn1c2ccccc2c(=O)c2cc([N+](=O)[O-])ccc21)Nc1ccc(F)c(Cl)c1`, for which the EC50 in the data set with Plasmodium falciparum [1] is 5670 nM; with Plasmodium falciparum [2], more than 12500 nM. The compound further gave a CC50 in data set [3] of more than 100000 nM.
For `c1ccc(OCCOc2ccc(Nc3c4ccccc4nc4ccccc34)cc2)cc1`, the results for the concentration giving a half-maximal response (EC50) with Plasmodium falciparum [1] and in the data set with Plasmodium falciparum [2] were 347 nM and 505 nM, respectively. This compound also gave a CC50 in data set [3] of 6120 nM.
The corresponding values for `CCCN(Cc1cc(OC)c2c(c1)OCO2)CC1CC1` are 566 nM, more than 1720 nM and more than 10000 nM.
`O=C(NCCCCNc1ccnc2cc(Cl)ccc12)c1ccc([N+](=O)[O-])cc1`: the EC50 in the data set with Plasmodium falciparum [1] turned out to be 565 nM; in the data set with Plasmodium falciparum [2] it was 486 nM. In addition, in data set [3], the CC50 is more than 10000 nM.
On to `CCc1ccc(NC(=O)c2ccc(F)c(S(=O)(=O)N3CCN(C)CC3)c2)cc1`, for which the EC50 with Plasmodium falciparum [1] is more than 584 nM; in the data set on Plasmodium falciparum [2], more than 1250 nM. In addition, in data set [3], the cytotoxic concentration (CC50) was more than 10000 nM.
With `Cc1cc(NS(=O)(=O)c2ccc(N=Cc3ccc(C#N)cc3)cc2)no1`, the concentration giving a half-maximal response (EC50) in the data set with Plasmodium falciparum [1] was more than 582 nM; in the data set on Plasmodium falciparum [2] it was more than 1640 nM. Further, in data set [3], the CC50 is more than 10000 nM.
As to `COc1ccc(C(=O)C(C)[n+]2cccc3ccc4cccnc4c32)cc1` (configuration not stated), the half-maximal effective concentration (EC50) in the data set with Plasmodium falciparum [1] is more than 577 nM; with Plasmodium falciparum [2], 195 nM. Besides, in data set [3], the cytotoxic concentration (CC50) is more than 10000 nM.
For the compound `NC(=S)NN=C1c2ccccc2-c2nc3nonc3nc21`, the values for the 50% effective concentration (EC50) in the data set with Plasmodium falciparum [1] and in the data set on Plasmodium falciparum [2] were 582 nM and 1130 nM, respectively. The compound also displayed a half-maximal cytotoxic concentration (CC50) in data set [3] of more than 10000 nM.
Consider `C=C(C)[C@@]12O[C@@H]1[C@@]1(C)C(=CC2=O)CC[C@@H](O)[C@@H]1C`, for which the values for the half-maximal effective concentration (EC50) in the data set with Plasmodium falciparum [1] and with Plasmodium falciparum [2] were 586 nM and 787 nM, respectively. This compound also had a cytotoxic concentration (CC50) in data set [3] of more than 10000 nM.
Take `CCCC1(CCC)NC(=S)N(c2ccc(C)c(C)c2)N1`: the EC50 in the data set with Plasmodium falciparum [1] is more than 576 nM; in the data set with Plasmodium falciparum [2], more than 1250 nM. In data set [3], this compound came in with a CC50 of more than 10000 nM.
`COc1ccc(-n2nc(C(C)(C)C)cc2NC(=O)CN(C(=O)c2ccc(C)c([N+](=O)[O-])c2)C(C)C)cc1`: the 50% effective concentration (EC50) in the data set with Plasmodium falciparum [1] was 1820 nM; with Plasmodium falciparum [2] it was 1550 nM. In data set [3], it took 31100 nM to reach half-maximal cytotoxicity (CC50).
In the same order, the values of `O=C(NCCc1nc(-c2cccnc2)n[nH]1)C12CC3CC(CC(C3)C1)C2` are 581 nM, more than 1250 nM and more than 10000 nM.
For `CCCCCCC(NC(=O)OCc1ccccc1)S(=O)(=O)c1ccc(C)cc1` (configuration not stated), the concentration giving a half-maximal response (EC50) with Plasmodium falciparum [1] was 5800 nM; in the data set with Plasmodium falciparum [2] it was more than 12500 nM. In data set [3], the CC50 was more than 100000 nM.
As for `NS(=O)(=O)c1ccc(CCNC(=O)/C=C/c2ccc3c(c2)OCO3)cc1`, the concentration giving a half-maximal response (EC50) in the data set on Plasmodium falciparum [1] is more than 583 nM; in the data set on Plasmodium falciparum [2], more than 1400 nM. The compound also displayed a half-maximal cytotoxic concentration (CC50) in data set [3] of more than 10000 nM.
The corresponding values for `CCN(CC)c1ccc(C=C(C#N)c2nc3ccccc3[nH]2)o1` are more than 2670 nM, 3350 nM and 46200 nM.
`COc1ccc(N(CC(=O)Nc2cc(OC)ccc2OC)S(=O)(=O)c2ccc(C)cc2)cc1`: the values for the 50% effective concentration (EC50) with Plasmodium falciparum [1] and in the data set with Plasmodium falciparum [2] were more than 583 nM and more than 1250 nM, respectively. In data set [3], the CC50 was more than 10000 nM.
Consider `COc1ccc(OCC(O)CNC2CCN(CC(O)COc3ccc(Cl)c(Cl)c3)CC2)cc1` (configuration not stated), for which the EC50 in the data set on Plasmodium falciparum [1] stood at 524 nM; in the data set with Plasmodium falciparum [2], 328 nM. The CC50 in data set [3] is 9140 nM.
With `c1ccc(-c2ccccc2OCCNCCN2CCOCC2)cc1`, the EC50 is 2700 nM with Plasmodium falciparum [1] and 10100 nM with Plasmodium falciparum [2]. For the same compound, in data set [3], the CC50 worked out at 46800 nM.
In the same order, the values of `O=C(NC1CCCCC1)c1noc2c1CCCCC2` are 5670 nM, more than 12500 nM and more than 100000 nM.
The corresponding values for `O=C(/C=C/c1ccc(-c2cccc([N+](=O)[O-])c2)o1)Nc1nccs1` are more than 570 nM, more than 1250 nM and more than 10000 nM.
The corresponding values for `Nc1cc(-c2cccs2)n[nH]1` are more than 5810 nM, more than 11200 nM and more than 100000 nM.
In the case of `CCCN(C(=O)Nc1c(C(C)C)cccc1C(C)C)C(CC)c1nc2ccccc2c(=O)n1-c1cccc(C)c1` (configuration not stated), the half-maximal effective concentration (EC50) in the data set with Plasmodium falciparum [1] was determined as 4580 nM; with Plasmodium falciparum [2] it was 3170 nM. Moreover, the cytotoxic concentration (CC50) in data set [3] was 80900 nM.
The corresponding values for `CCN1CCN(CCN2C(=O)C3C(C(=O)Nc4ccc(C(C)C)cc4)C4C=CC3(O4)C2C(=O)NC2CCCCC2)CC1` (configuration not stated) are 5820 nM, more than 12500 nM and more than 100000 nM.
